Tested on: male Sprague-Dawley rats
Assay: Inhibition of the reflex depressor response to colorectal distension in anaesthetised rats
Format: in vivo, rat
Settings: for Fall in arterial blood pressure (mean absolute decrease in mean arterial pressure, standard error of mean in brackets) evoked by distension of the balloon: following MCI-225 3 mg/kg i.v.
Description: The data on which this invention is based will now be described. In a study using intact animals, the ability of a drug to inhibit the reflex depressor response to colorectal distension can be assessed. In this model, an inhibition of the reflex indicates modulation of visceral nociceptive neurotransmission and, therefore, the use of the drug in functional bowel disease (e.g. IBS); see Kozlowski et al, 2000, Gut 46, 474-480. Allodynia and visceral pain are important components of functional bowel disease.
Experiments were performed on male Sprague-Dawley rats (250-300 g). Anaesthesia was induced with isoflurane (2.5% in oxygen) and maintained with alpha chlorolose (80 mg/kg i.v.). The left carotid artery was cannulated for the measurement of blood pressure and heart rate and the left jugular vein cannulated for drug administration. A tracheal cannula was implanted for artificial respiration if required. A 10 mm long latex balloon was inserted intrarectally so that the tip of the balloon was 20 mm from the anal verge (Kozlowski et al, supra). The balloon was connected via a double lumen cannula to a pressure transducer and also to a saline-filled syringe for inflation/deflation of the balloon. Throughout the experiment, body temperature was kept constant at 36-38 C using a homeothermic blanket.
Once stable baseline parameters were obtained (approximately after 20 minutes), the balloon was rapidly inflated with increasing volumes of saline (0.5-2.5 ml) for 30 seconds at 5 minute intervals, and the resultant change in blood pressure recorded. Three distinct response curves were constructed, with a 10 minute stabilisation period between each curve. In one group of animals, 10 minutes prior to the commencement of the final distension response curve, a single bolus of MCI-225 (3 mg/kg) was administered intravenously; in a second group of animals, a single bolus dose of vehicle was administered. The effect of MCI-225 and vehicle was determined by analysing the changes in colorectal distension that evoked depressor response.

Cc1cc2c(-c3ccccc3F)nc(N3CCNCC3)nc2s1.Cl.O [MCI-225, 4-(2-Fluorophenyl)-6-methyl-2-(1-piperazinyl)thieno[2,3-D]pyrimidine monohydrate hydrochloride]
Effect on distension-induced falls in blood pressure (in words) (3 mg/kg i.v., colorectal balloon distension): inhibited the distension-induced falls in blood pressure | Fall in arterial blood pressure (mean absolute decrease in mean arterial pressure, standard error of mean in brackets) evoked by distension of the balloon (0.5 ml balloon volume, n=6): 2.2 (1.65) mmHg | Fall in arterial blood pressure (mean absolute decrease in mean arterial pressure, standard error of mean in brackets) evoked by distension of the balloon (1.0 ml balloon volume, n=6): 6.3 (2.6) mmHg | Fall in arterial blood pressure (mean absolute decrease in mean arterial pressure, standard error of mean in brackets) evoked by distension of the balloon (1.5 ml balloon volume, n=6): 10.6 (3.9) mmHg | Fall in arterial blood pressure (mean absolute decrease in mean arterial pressure, standard error of mean in brackets) evoked by distension of the balloon (2.0 ml balloon volume, n=6, p less than 0.01 vs before drug (paired t test)): 15.3 (5.4) mmHg | Fall in arterial blood pressure (mean absolute decrease in mean arterial pressure, standard error of mean in brackets) evoked by distension of the balloon (2.5 ml balloon volume, n=5, p less than 0.05 vs before drug (paired t test)): 24.6 (7.3) mmHg

Reference: patent publication US7470690B2, “4-(2-Fluorophenyl)-6-methyl-2-(1-piperazinyl)thieno[2,3-D)pyrimidine in the treatment of functional bowel disorder” (Dynogen Pharmaceuticals, Inc., priority 2002, dated 2008)
